Experimental data reported in patent US8431541B2, “Alpha-amylase inhibitors: the montbretins and uses thereof” (The University of British Columbia, priority 2007, dated 2013).

Experiments:
Format in all cases: biochemical
[1] = target: β-galactosidase (E. coli) (Escherichia coli, UniProt P00722); assay: Glycosidase specificity: β-galactosidase; details: at 0.1 μM Montbretin A; read-out: RA (%), Residual Enzyme Activity
[2] = target: T1, β-glucosidase (Agrobacterium sp.) (Agrobacterium sp., UniProt P12614); assay: Glycosidase specificity: β-glucosidase
T1 sequence (P12614 1-459): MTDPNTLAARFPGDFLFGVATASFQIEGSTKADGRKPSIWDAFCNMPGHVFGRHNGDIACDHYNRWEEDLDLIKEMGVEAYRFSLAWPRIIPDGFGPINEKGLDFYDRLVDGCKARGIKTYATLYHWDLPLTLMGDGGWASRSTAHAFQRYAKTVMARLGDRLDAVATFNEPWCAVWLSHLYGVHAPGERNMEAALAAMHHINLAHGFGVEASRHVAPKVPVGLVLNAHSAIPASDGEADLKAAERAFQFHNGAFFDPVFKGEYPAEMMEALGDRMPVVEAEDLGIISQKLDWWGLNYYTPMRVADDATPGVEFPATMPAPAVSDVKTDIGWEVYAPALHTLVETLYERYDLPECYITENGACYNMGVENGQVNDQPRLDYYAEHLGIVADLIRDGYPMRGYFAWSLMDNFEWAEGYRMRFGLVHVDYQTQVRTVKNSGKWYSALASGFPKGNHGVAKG
Source text: The subsequent residue of montbretin A is also a β-linked glucose residue, however this residue bears a large 6-O-caffeic ester moiety and would therefore not be processed by Abg. […] Thus, the terminal glucosyl residue on the trisaccharide moiety is not required for α-amylase activity.

[3] = system: β-hexosaminidase (Jack Bean); assay: Glycosidase specificity: β-hexosaminidase; details: at 0.1 μM Montbretin A
[4] = target: T2, α-mannosidase (Jack Bean) (Canavalia ensiformis, UniProt C0HJB3); assay: Glycosidase specificity: α-mannosidase; details: at 0.1 μM Montbretin A; read-out: RA (%), Residual Enzyme Activity
T2 sequence (C0HJB3 1-981): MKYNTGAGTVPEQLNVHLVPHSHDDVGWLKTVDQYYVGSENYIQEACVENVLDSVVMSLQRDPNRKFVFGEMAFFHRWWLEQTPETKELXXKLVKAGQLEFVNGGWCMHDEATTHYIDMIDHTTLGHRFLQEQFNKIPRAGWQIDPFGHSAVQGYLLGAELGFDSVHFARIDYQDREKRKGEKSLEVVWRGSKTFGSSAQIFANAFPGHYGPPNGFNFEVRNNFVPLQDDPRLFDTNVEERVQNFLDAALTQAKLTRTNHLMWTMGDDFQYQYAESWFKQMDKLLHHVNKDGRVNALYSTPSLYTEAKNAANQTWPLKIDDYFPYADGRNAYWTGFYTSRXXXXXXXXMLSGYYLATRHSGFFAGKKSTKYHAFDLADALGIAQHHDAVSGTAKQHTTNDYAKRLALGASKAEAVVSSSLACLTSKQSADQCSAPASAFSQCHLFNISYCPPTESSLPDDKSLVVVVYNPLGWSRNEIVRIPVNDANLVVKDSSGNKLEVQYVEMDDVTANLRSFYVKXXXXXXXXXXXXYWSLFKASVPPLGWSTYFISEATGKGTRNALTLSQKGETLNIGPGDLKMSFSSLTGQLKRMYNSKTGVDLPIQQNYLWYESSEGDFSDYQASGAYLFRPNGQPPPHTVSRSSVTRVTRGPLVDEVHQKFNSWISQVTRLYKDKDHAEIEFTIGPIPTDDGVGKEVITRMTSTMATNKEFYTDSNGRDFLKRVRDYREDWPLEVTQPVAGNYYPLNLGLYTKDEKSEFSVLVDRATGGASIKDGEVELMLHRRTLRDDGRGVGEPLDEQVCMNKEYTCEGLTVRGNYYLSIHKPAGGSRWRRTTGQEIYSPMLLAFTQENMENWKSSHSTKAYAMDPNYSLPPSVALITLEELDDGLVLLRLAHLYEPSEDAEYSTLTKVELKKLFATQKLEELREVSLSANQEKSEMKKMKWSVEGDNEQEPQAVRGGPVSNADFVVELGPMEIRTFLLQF

[5] = system: α-glucosidase (Brewers Yeast); assay: Glycosidase specificity: α-glucosidase; details: at 0.1 μM Montbretin A
α-amylase (HPA) = target: T3, α-amylase (HPA) (Homo sapiens, UniProt P04746); assay: Glycosidase specificity: α-amylase; details: at 0.1 μM Montbretin A; read-out: RA (%), Residual Enzyme Activity
T3 sequence (P04746 16-511): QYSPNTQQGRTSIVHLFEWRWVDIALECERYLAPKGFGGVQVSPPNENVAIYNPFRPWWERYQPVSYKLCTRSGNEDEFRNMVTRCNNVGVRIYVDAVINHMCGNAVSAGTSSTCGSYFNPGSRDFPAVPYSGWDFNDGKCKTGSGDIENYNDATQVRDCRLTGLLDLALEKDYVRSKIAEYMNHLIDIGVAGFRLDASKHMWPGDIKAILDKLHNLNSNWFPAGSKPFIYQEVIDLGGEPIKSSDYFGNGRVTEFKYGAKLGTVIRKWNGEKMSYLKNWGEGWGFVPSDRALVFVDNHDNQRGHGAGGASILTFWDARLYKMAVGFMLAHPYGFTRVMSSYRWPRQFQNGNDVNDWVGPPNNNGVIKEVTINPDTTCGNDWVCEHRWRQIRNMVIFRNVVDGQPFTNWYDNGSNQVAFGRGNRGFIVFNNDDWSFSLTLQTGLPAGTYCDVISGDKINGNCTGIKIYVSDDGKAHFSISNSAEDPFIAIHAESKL

Chain of β-galactosidase (E. coli) (P00722 2-1024 limits assumed): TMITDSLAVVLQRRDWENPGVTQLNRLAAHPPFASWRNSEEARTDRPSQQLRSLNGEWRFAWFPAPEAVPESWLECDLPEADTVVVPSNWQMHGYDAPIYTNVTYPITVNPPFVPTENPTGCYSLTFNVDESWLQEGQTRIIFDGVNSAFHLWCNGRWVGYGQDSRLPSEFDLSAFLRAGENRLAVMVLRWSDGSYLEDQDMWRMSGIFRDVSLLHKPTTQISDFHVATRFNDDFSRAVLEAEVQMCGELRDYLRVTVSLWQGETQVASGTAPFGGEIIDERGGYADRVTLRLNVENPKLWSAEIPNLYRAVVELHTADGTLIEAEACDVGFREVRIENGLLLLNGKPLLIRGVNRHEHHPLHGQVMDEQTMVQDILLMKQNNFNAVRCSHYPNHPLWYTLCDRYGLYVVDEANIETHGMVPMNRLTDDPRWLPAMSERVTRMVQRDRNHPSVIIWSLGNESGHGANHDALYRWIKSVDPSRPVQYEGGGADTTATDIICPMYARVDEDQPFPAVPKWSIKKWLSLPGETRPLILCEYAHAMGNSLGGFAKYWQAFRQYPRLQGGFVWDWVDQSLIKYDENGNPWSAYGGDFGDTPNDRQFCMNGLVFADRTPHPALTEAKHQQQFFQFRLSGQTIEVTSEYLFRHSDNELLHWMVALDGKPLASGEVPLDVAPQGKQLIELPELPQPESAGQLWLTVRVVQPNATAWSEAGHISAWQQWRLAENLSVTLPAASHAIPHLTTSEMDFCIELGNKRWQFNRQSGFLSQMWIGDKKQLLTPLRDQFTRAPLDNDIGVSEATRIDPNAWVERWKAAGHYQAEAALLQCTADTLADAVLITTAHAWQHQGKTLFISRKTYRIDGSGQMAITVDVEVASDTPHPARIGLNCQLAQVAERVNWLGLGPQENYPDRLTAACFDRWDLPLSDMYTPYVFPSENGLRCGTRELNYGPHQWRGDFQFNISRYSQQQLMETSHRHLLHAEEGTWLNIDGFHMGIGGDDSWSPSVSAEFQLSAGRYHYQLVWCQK

CC1O[C@@H](O[C@@H]2CO[C@@H](Oc3c(O)cc(-c4oc5cc(O)cc(O)c5c(=O)c4O[C@@H]4OC(C)[C@H](O)[C@H](O)C4O[C@@H]4OC(COC(=O)/C=C/c5ccc(O)c(O)c5)[C@@H](O)[C@@H](O)C4O[C@@H]4OC(CO)[C@@H](O)[C@@H](O)C4O)cc3O)C(O)[C@@H]2O)C(O)[C@@H](O)[C@H]1O (some centres unmarked) [Montbretin A, montbretin A]
remaining activity at 0.1 µM [1]: 98% | remaining activity at 0.1 µM ([2]; at 0.1 μM Montbretin A, read-out: RA (%), Residual Enzyme Activity): 100% | inhibition of β-glucosidase from Agrobacterium (Abg) ([2]; extent of inhibition decreasing with time): time dependent inhibition | inhibition of Abg after pre-incubation ([2]; pre-incubation with Abg prior to addition of assay substrate): no inhibition | RA (%), Residual Enzyme Activity [3]: 99% | remaining activity at 0.1 µM [4]: 100% | RA (%), Residual Enzyme Activity [5]: 97% | remaining activity at 0.1 µM (α-amylase (HPA)): 11%
